Laboratory results: patent publication US9611295B2, “Treatment of IL-17 mediated disease by blocking SEFIR-SEFIR interactions” (THE CLEVELAND CLINIC FOUNDATION, priority 2011, dated 2017)

How the values were obtained:
[1] = tested on: IL-25-dependent signaling; assay: IL-25-dependent signaling in MEFs by Western blotting (pIκB, pJNK, pERK, pp38 MAPK); assay type: cell-based, mouse; details: MEFs expressing IL-17RB, peptides 200 μM, 24 hours
Method: FIG. 4 provides data showing that a cell-permeable CC′ loop decoy peptide disrupts the interaction between Act1 and IL-17RA and inhibits IL-17R and IL-25R signaling. FIG. 4A provides sequences of Antennapedia homeodomain (Antp) (SEQ ID NO: 11)and decoy peptides (SEQ ID NOS 23-25 and 17, respectively, in order of appearance) with the Antp sequence underlined. FIG. 4B provides flow cytometry results based on experiments in which MEFs expressing IL-17RB were incubated for 2 or 24 hours with the indicated FITC-tagged peptides (200 μM) and were then analyzed by flow cytometry. […] The percentages of FITC-positive cells in the treated samples are shown. FIG. 4C provides Western blot results of experiments in which HeLa cells were cotransfected with plasmids encoding FLAG-tagged mAct1 and V5-tagged IL-17RA and were cultured for 24 hours, after which they were incubated for 24 hours with the indicated peptides (200 μM). IL-17RA was immunoprecipitated from the samples with antibody against the V5 tag, and samples were then subjected to Western blotting analysis with the indicated antibodies. FIG. 4D provides Western blot results of experiments in which MEFs expressing IL-17RB were incubated with the indicated peptides (200 μM) for 24 hours after which they were treated with IL-17 or IL-25 and then analyzed by Western blotting with the indicated antibodies. FIG. 4E provides bar graphs showing the results of experiments in which MEFs expressing IL-17RB were incubated with the indicated peptides (200 μM) for 24 hours, after which they were treated with IL-17 or IL-25 for 3 hours. The abundances of Cxcl1 and Il13 mRNAs were then measured by real-time RT-PCR. […]
(§1) Decoy peptides are based on surface-exposed regions of the primary sequence of a protein to mimic a putative interaction interface. […] These decoy peptides were also tagged at their C-termini with fluorescein isothiocyanate (FITC) to enable their cell-penetrating efficiency to be evaluated by flow cytometric sanalysis. […]

[2] = tested on: IL-17-mediated expression of Cxcl1; assay: IL-17-mediated Cxcl1 mRNA expression in MEFs, real-time RT-PCR; assay type: cell-based, mouse; details: peptides 200 μM for 24 hours, then IL-17 for 3 hours
Method: (§2) FIG. 4 provides data showing that a cell-permeable CC′ loop decoy peptide disrupts the interaction between Act1 and IL-17RA and inhibits IL-17R and IL-25R signaling. FIG. 4A provides sequences of Antennapedia homeodomain (Antp) (SEQ ID NO: 11)and decoy peptides (SEQ ID NOS 23-25 and 17, respectively, in order of appearance) with the Antp sequence underlined. FIG. 4B provides flow cytometry results based on experiments in which MEFs expressing IL-17RB were incubated for 2 or 24 hours with the indicated FITC-tagged peptides (200 μM) and were then analyzed by flow cytometry. […] The percentages of FITC-positive cells in the treated samples are shown. […] FIG. 4D provides Western blot results of experiments in which MEFs expressing IL-17RB were incubated with the indicated peptides (200 μM) for 24 hours after which they were treated with IL-17 or IL-25 and then analyzed by Western blotting with the indicated antibodies. […] The abundances of Cxcl1 and Il13 mRNAs were then measured by real-time RT-PCR. […]
as §1

[3] = tested on: IL-25-mediated expression of Il13; assay: IL-25-mediated Il13 mRNA expression in MEFs, real-time RT-PCR; assay type: cell-based, mouse; details: peptides 200 μM for 24 hours, then IL-25 for 3 hours
Method: as §2, §1

[4] = molecular target: T1, IL-17RA SEFIR domain (Homo sapiens, UniProt Q96F46); assay: SPR binding of peptides to immobilized IL-17RA SEFIR domain; details: sensor-immobilized IL-17RA SEFIR, Biacore 3000
T1 construct: IL17RA-SEFIR, amino acid residues 351 to 616; 6xHis (N, cleaved yes); TEV recognition site (ENLYFQG) (N, cleaved yes); made in house
T1 sequence (Q96F46 351-616): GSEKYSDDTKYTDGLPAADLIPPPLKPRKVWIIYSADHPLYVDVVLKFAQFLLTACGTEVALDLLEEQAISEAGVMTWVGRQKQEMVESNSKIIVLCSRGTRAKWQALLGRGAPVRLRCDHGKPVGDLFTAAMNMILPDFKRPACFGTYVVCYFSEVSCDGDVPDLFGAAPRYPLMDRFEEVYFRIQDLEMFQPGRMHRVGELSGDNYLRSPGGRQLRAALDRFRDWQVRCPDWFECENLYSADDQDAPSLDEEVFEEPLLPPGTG
From the text: The Cins helix and the CC′ loop are distinct putative surface-exposed sequences in the SEFIR3 segment of Act1. To determine whether the Cins helix and the CC′ loop interacted with IL-17RA, surface plasmon resonance (SPR) was used to test peptides derived from Cins (SPKYKQDVEGAESQ) (SEQ ID NO: 19) and the CC′ loop (LDEDEHGLHTKY) (SEQ ID NO: 5) for their ability to bind to the IL-17RA SEFIR domain. As expected, the recombinant Act1 SEFIR domain bound to the sensor-immobilized SEFIR of IL-17RA.
Expression and purification of IL-17RA and mAct1-SEFIR proteins: The cDNA encoding a SEFIR domain-containing fragment of human IL17RA (IL17RA-SEFIR, amino acid residues 351 to 616) was subcloned into a modified pET-28 vector, with a N-terminal 6×His tag (SEQ ID NO: 18)and a tobacco etch virus protease (TEV) recognition site (ENLYFQG) (SEQ ID NO: 21 )). The IL17RA SEFIR domain was expressed and purified by double-Nickel-Nitrilotriacetic Acid (Ni-NTA) affinity methods as previously described. Deng et al., Acta Crystallogr D Biol Crystallogr 60:203-204 (2004). The His-tag was subsequently removed from the eluted fusion protein by rTEV, and IL17RA-SEFIR was further purified as flow-through material from a second subtracting Ni-NTA column. Size-exclusion chromatography on a superdex s200 HR high resolution column was used as a final step for purification. The cDNA encoding a SEFIR domain containing a fragment of mouse Act1 (mAct1-SEFIR, residues 391 to 537) was subcloned into a modified pET28b vector that expresses maltose-binding protein (MBP) with an N-terminal 6×His tag (SEQ ID NO: 18) and a C-terminal TEV recognition site. Recombinant mAct1-SEFIR was expressed and purified as previously described. Deng et al., Proc Natl Acad Sci USA 105:1499-1504 (2008). The His-tagged MBP moiety was cleaved from the fusion protein by rTEV after the first Ni-NTA column purification. Recombinant mAct1-SEFIR was subsequently collected as flow-through from a second subtracting Ni-NTA column.
SPR analysis: Binding of purified Act1 SEFIR domain or peptides to IL-17RA was conducted on a Biacore 3000. Purified IL-17RA SEFIR domain was immobilized on a CM5 sensor chip in 10 mM acetic acid (pH 4.5). Purified Act1 SEFIR domain or peptides were allowed to flow over the chip in a buffer of 10 mM Hepes (pH 7.4), 150 mM NaCl, and 0.005% surfactant P20. The chip was regenerated with 1 M NaCl. Binding KD values were determined by Biaevaluation software.

[5] = tested on: House Dust Mite (HDM)-induced Asthma; assay: Murine model of House Dust Mite (HDM)-induced asthma; assay type: in vivo, mouse; details: day 6; about 100,000 cells/ml without peptide
Method: FIG. 11 provides a graph showing that the ASI peptide inhibits inflammation in a murine model of experimental House Dust Mite (HDM)-induced Asthma. The white blood cell count was about 100,000 cells/ml when IL-17 was used alone, but dropped to about 10,000 cells/ml when ASI peptide was used together with IL-17. […] Ears from C57B1/6 mice (n=3 for each group) were injected daily with PBS, IL-17 with or without ASI. On day 7, ears were collected for staining with H&E and real-time analysis of gene expression.

[6] = tested on: IL-17-induced inflammation in mouse ear skin; assay: IL-17-induced inflammation in mouse ear skin; assay type: in vivo; details: C57B1/6 mice, daily injection
Method: Ears from C57B1/6 mice (n=3 for each group) were injected daily with PBS, IL-17 with or without ASI. On day 7, ears were collected for staining with H&E and real-time analysis of gene expression.

Question: What does the source list for “Act1 SEFIR domain BB′ loop peptide: cell-permeable decoy peptide: BB′ loop sequence of Act1 SEFIR domain fused to C-terminus of Antp (DRQIKIWFQNRRMKWKKEDRIRGID) [reference compound]”?
Answer: IL-25-dependent signaling (pIκB, pJNK, pERK, pp38 MAPK) [1]: but not the Act1 SEFIR domain BB′ loop peptide, partly attenuated; inhibition of IL-17-mediated expression of Cxcl1 [2]: no effect; inhibition of IL-25-mediated expression of Il13 [3]: no effect

Question: With “SPKYKQDVEGAESQ [Cins peptide, reference compound]” as the molecule, how does the “binding to the IL-17RA SEFIR domain (SPR)” value (“binding” for short) [4] read?
Answer: but not the Cins peptide, bound to the IL-17RA SEFIR

Question: LDEDEHGLHTKY [CC′ loop peptide] was tested. Which “binding” value [4] did it give?
Answer: bound to the IL-17RA SEFIR

Question: With “ASI peptide: the CC′ loop decoy peptide (SEQ ID NO: 5) (LDEDEHGLHTKY)” as the molecule, how does the “white blood cell count in BAL” value [5] read?
Answer: about 10,000 cells/ml

Question: And the “epidermal thickness and inflammation of ear skin (H&E)” value ([6]; day 7)?
Answer: inhibits IL-17-induced inflammation

Question: What about the “inflammatory gene expression in ear skin (bar graphs)” value ([6]; day 7, real-time analysis) of the same molecule?
Answer: counteracted the inflammatory results of IL-17

Question: With “EDRIRGID (listed as Mus sp.) [peptide derived from the BB′ loop, reference compound]” as the molecule, how does the “binding” value [4] read?
Answer: did not bind

B1: recombinant Act1 SEFIR domain: SEFIR domain containing fragment of mouse Act1, residues 391 to 537 (protein)
chain: RKVFITYSMDTAMEVVKFVNFLLVNGFQTAIDIFEDRIRGIDIIKWMERYLRDKTVMIIVAISPKYKQDVEGAESQLDEDEHGLHTKYIHRMMQIEFISQGSMNFRFIPVLFPNAKKEHVPTWLQNTHVYSWPKNKKNILLRLLREE
Question: With B1 as the molecule, how does the “binding” value [4] read?
Answer: bound
